Laboratory results reported in PMC6630668, “Comprehensive Analysis of Secondary Metabolites in Usnea longissima (Lichenized Ascomycetes, Parmeliaceae) Using UPLC-ESI-QTOF-MS/MS and Pro-Apoptotic Activity of Barbatic Acid” (Molecules, 2019).

How the values were obtained:
[1] = system: HeLa (Human cervical cancer); experiment: MTT cytotoxicity assay, HeLa; assay type: cell-based; conditions: 50% cell proliferation inhibitory concentration after 48 h of compound treatment, compounds
Method: (§1) MTT assay was performed as described earlier. Cells were plated at a density of 1 × 10^4 cells/well in 100 µL Dulbecco’s Modified Eagle Medium (DMEM)/Minimum Essential Media (MEM) medium, supplemented with 10% FBS in 96-well plates for 24 h. After incubation, cells were treated with standard doxorubicin and test compounds for 48 h. After 48 h of treatment, 10 µL MTT (3-(4,5-dimethylthiazol-2 yl)-2,5-diphenyl tetrazolium bromide) (5 mg/mL) were added to each well and the plates were further incubated for 4 h. After 4 h, 100 µL DMSO was added to each well and absorbance at 570 nm wavelength was recorded spectrophotometrically.

[2] = system: A549 (Human lung cancer); experiment: MTT cytotoxicity assay, A549; assay type: cell-based; conditions: 50% cell proliferation inhibitory concentration after 48 h of compound treatment, compounds
Method: as §1

[3] = system: MCF-7 (Human breast cancer); experiment: MTT cytotoxicity assay, MCF-7; assay type: cell-based; conditions: MCF7, 50% cell proliferation inhibitory concentration after 48 h of compound treatment, compounds
Method: as §1

[4] = system: DU-145 (Human prostate cancer); experiment: MTT cytotoxicity assay, DU-145; assay type: cell-based; conditions: 50% cell proliferation inhibitory concentration after 48 h of compound treatment, compounds
Method: as §1

[5] = system: HEK-293 (Normal cell line, Human embryonic kidney); experiment: MTT cytotoxicity assay, HEK-293; assay type: cell-based; conditions: compounds
Method: as §1

[6] = system: A549 cells; experiment: Annexin V-FITC assay for apoptosis; assay type: cell-based, human; conditions: A549, 24 h; for total apoptosis: control 1.12%
Method: A549 cells were seeded in six-well plates and incubated for 24 h. After incubation, cells were treated with doxorubicin at 2 µM and compound 21 at 1 and 2 µM concentrations and further incubated for 24 h. After 24 h treatment, cells were harvested by trypsinization. After harvesting, cells were washed with PBS at 5000 rpm. After washing, cells were stained with Annexin-V and propidium iodide using Annexin-V apoptosis detection kit (Sigma-Aldrich). Annexin V-FITC assay was performed as described earlier.

[7] = system: Poly (ADP-ribose) polymerase (PARP); experiment: Immunoblot assay for PARP cleavage; assay type: cell-based, human; conditions: A549, 21 at 1 and 2 µM for 48 h; doxorubicin 1 µM
Text: (§2) Following treatments, cells were washed twice with PBS and lysed in 1× SDS sample buffer. Proteins were separated on 10% SDS-polyacrylamide gels and transferred onto nitrocellulose membranes. Membranes were washed twice with tween Tris-buffered saline before blocking nonspecific binding with 5% nonfat dry milk (Blotto, Santa Cruz Biotechnology, Dallas, TX, USA) or 3% bovine serum albumin. Anti-Poly ADP-ribose Polymerase (PARP) (11835238001-Roche) antibody, that detects total and cleaved PARP was used at 1:1000 dilutions, and membranes were incubated for 2 h at room temperature. Anti-Cyclin D1 (C7464, Sigma Aldrich) and anti-CDK4 (SAB140559, Sigma Aldrich) were detected similar to PARP protein. Membranes were washed three times, and detection was performed using horseradish peroxidase-conjugated secondary antibody as described previously.

[8] = system: CDK4 and Cyclin D1; experiment: Immunoblot assay for CDK4 and Cyclin D1; assay type: cell-based, human; conditions: A549, 21 at 1 and 2 µM for 48 h; doxorubicin 1 µM
Text: as §2

[9] = system: human cancer cell lines; experiment: MTT cytotoxicity assay, panel of cancer cell lines; assay type: cell-based; conditions: HeLa, MCF-7 and DU-145, range over the cell lines, read-out: IC50 on additional cancer cell lines
Method: as §1

[10] = system: A549 cells; experiment: Cell cycle analysis by flow cytometry; assay type: cell-based, human; conditions: A549, 24 h
Method: Flow cytometric analysis (FACS) was performed to evaluate the cell cycle arrest. A549 cells were seeded, incubated for 24 h and then treated with doxorubicin at 2 µM and compound 21 at 1 and 2 µM concentrations for 24 h. After that, cells were harvested and washed with phosphate buffered saline (PBS) followed by fixation in ice cold 70% ethanol. After fixation cells were incubated with RNase A (0.1 mg/mL) at 37 °C for 30 min and stained with propidium iodide (Sigma Aldrich, St. Louis, MO, USA) (50 μg/mL) for 30 min on ice in dark. Cell cycle analysis was performed by flow cytometry (Becton Dickinson FACS Caliber instrument).

[11] = system: A549 cells; experiment: Hoechst staining for apoptosis; assay type: cell-based, human; conditions: A549, 1 and 2 µM, 48 h
Method: A549 cells were seeded on cover slips and incubated for 24 h. After incubation, cells were treated with doxorubicin at 2 µM and compound 21 at 1 and 2 µM concentrations for 48 h. After 48 h treatment, Hoechst staining was performed using H33258 dye. Florescence images were captured by Olympus microscope using 10X lens.

[12] = system: caspase-3; experiment: Caspase-3 assay (fluorimetric, Ac-DEVD-AMC); assay type: cell-based, human; conditions: A549, 2 µM
Method: Following treatment, cell lysates were washed twice with phosphate-buffered saline and dissolved in lysis buffer (50 mM HEPES (pH 7.4) containing 5 mM CHAPS and 5 mM DTT) for 15 min on ice. Later, cells were centrifuged at 14,000× g for 15 min, under cold conditions, and collected the clear supernatant. The supernatant was added to assay buffer (20 mM HEPES (pH 7.4), 2 mM EDTA, 0.1% CHAPS, and 5 mM DTT) containing caspase 3 substrate (Ac-DEVD-AMC, 40 μM) in a final volume of 100 μL as described earlier. The incubation was performed for 1 h at 37 °C with readings recorded at 5-min intervals. Fluorescence released by AMC was measured at 360-nm and 460-nm excitation and emission wavelengths, respectively. Values were normalized to protein concentration and expressed as fold change of activity relative to DMSO control.

[13] = Homo sapiens, 2 µM, read-out: live (viable) cells (LL)
[14] = Homo sapiens, HEK293, 48 h, after 48 h of compound treatment

| SMILES | IC50 [1] [µM] | IC50 [2] [µM] | IC50 [3] [µM] | IC50 [4] [µM] | early apoptotic cells (LR) ([6]; 2 µM) [%] | late apoptotic cells (UR) ([6]; 2 µM) [%] | necrotic cells (UL) ([6]; 2 µM) [%] | viability at 2 µM [6, 13] [%] | PARP cleavage (in words) [7] | CDK4 and Cyclin D1 protein levels (in words) [8] | IC50 [5, 14] [µM] | further results |
| --- | --- | --- | --- | --- | --- | --- | --- | --- | --- | --- | --- | --- |
| CC(=O)C1=C(O)C=C2Oc3c(C(C)=O)c(O)c(C)c(O)c3C2(C)C1=O (single isomer, unassigned; (+)) [compound 22, (+)-usnic acid] | 18.9 ± 2.06 | 13.8 ± 1.11 | 19.2 ± 2.05 | 24.2 ± 0.99 |  |  |  |  |  |  |  | IC50 ([5]; Homo sapiens, HEK293, after 48 h of compound treatment): 125 ± 1.98 µM |
| COc1cccc2c1C(=O)c1c(O)c3c(c(O)c1C2=O)C[C@@](O)(C(=O)CO)C[C@@H]3O[C@H]1C[C@H](N)[C@H](O)[C@H](C)O1 [Doxorubicin, doxorubicin, reference compound] | 1.55 ± 1.32 | 1.95 ± 0.97 | 1.62 ± 0.36 | 1.51 ± 0.84 | 22.3 | 9.79 | 0.12 | 67.8 | robust cleavage of PARP protein | accumulated |  |  |
| C[C@@H]1C(=O)OC(CCCCCCCCCCCCC[C@@H](C)O)C1C(=O)O (stereo partly drawn) [compound 19, 18R-hydroxy-dihydroalloprotolichesterinic acid] | 22.7 ± 0.97 | 20.2 ± 1.99 | 20 ± 0.74 | 27 ± 2.92 |  |  |  |  |  |  | 55.9 ± 1.55 |  |
| CC1=C(C(=O)O)[C@H](CCCCCCCCCCCCCC(C)O)OC1=O (stereo partly drawn) [compound 20, neuropogolic acid] | 23.6 ± 0.74 | 19.1 ± 3.86 | 22.3 ± 4.05 | 26.1 ± 1.09 |  |  |  |  |  |  | 113 ± 3.82 |  |
| COc1cc(C)c(C(=O)Oc2cc(C)c(C(=O)O)c(O)c2C)c(O)c1C [compound 21, barbatic acid] | 3.02 ± 0.11 | 1.78 ± 0.62 | 3.16 ± 0.88 | 9.03 ± 2.11 | 9.05 | 0.24 | 0.07 | 90.6 | robust cleavage of PARP protein | accumulated | > 100 | IC50 ([5]; after 48 h of compound treatment): 125 ± 2.65 µM; IC50 [9]: 3.02 to 9.03 µM; cell accumulation in G0/G1 phase ([10]; 1 µM): 70.9%; cell accumulation in G0/G1 phase ([10]; 2 µM): 74.4%; Hoechst staining, nuclear morphology (in words) [11]: chromatin condensation and fragmented nuclei; early apoptotic cells (LR) ([6]; 1 µM): 7.68%; late apoptotic cells (UR) ([6]; 1 µM): 0.10%; necrotic cells (UL) ([6]; 1 µM): 0.00%; total apoptosis ([6]; 1 µM): about 7.78%; total apoptosis ([6]; 2 µM): ~9.29%; viability at 1 µM ([6]; Homo sapiens, 1 µM, read-out: live (viable) cells (LL)): 92.2%; caspase-3 activity (in words) [12]: increased maximally |
